Source: patent US20230048132A1, “CYCLIN-DEPENDENT KINASE INHIBITORS” (SPV THERAPEUTICS INC., priority 2018, published 2023)
pIC50: −log10 of the molar value.

Legend:
Assay in all cases: 2D cell proliferation assay (CellTiter-Blue)
Format in all cases: cell-based
CEXF HeLa = details: Homo sapiens, 72 h, three days of treatment, read-out: abs. IC50
Outline: (§1)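 Cells at 4,000-60,000/well recovered 24 h, then five full-log concentrations up to 100 μM in duplicate for three days at 37 °C. CellTiter-Blue fluorescence (ex 570/em 600 nm) after up to 4 h; T/C% vs untreated controls, relative IC50 and absolute IC50/IC70 by 4-parameter fit.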

CXF COLO 205 = details: Homo sapiens, 72 h, three days of treatment, read-out: abs. IC50
Outline: as §1

CXF Caco-2 = details: Homo sapiens, 72 h, three days of treatment, read-out: abs. IC50
Outline: as §1

CXF HCT-15 = details: Homo sapiens, 72 h, three days of treatment, read-out: abs. IC50
Outline: as §1

CXF HT-29 = details: Homo sapiens, 72 h, three days of treatment, read-out: abs. IC50
Outline: as §1

GXA MKN45 = details: Homo sapiens, MKN-45, 72 h, three days of treatment, read-out: abs. IC50
Outline: as §1

LEXFAM MV4-11 = details: Homo sapiens, 72 h, three days of treatment, read-out: abs. IC50
Outline: as §1

LEXFCL MEC-1 = details: Homo sapiens, MEC1, 72 h, three days of treatment, read-out: abs. IC50
Outline: as §1

LEXFCM K-562 = details: Homo sapiens, K562, 72 h, three days of treatment, read-out: abs. IC50
Outline: as §1

LIXAH SNU-398 = details: Homo sapiens, 72 h, three days of treatment, read-out: abs. IC50
Outline: as §1

LIXFH Hep G2 = details: Homo sapiens, HepG2, 72 h, three days of treatment, read-out: abs. IC50
Outline: as §1

LXFA A549 = details: Homo sapiens, 72 h, three days of treatment, read-out: abs. IC50
Outline: as §1

LXFA NCl-H1975 = details: 72 h, three days of treatment, read-out: abs. IC50
Outline: as §1

LXFL NCl-H1299 = details: 72 h, three days of treatment, read-out: abs. IC50
Outline: as §1

LXFL NCl-H460 = details: 72 h, three days of treatment, read-out: abs. IC50
Outline: as §1

LYXFNH U-937 = details: Homo sapiens, 72 h, three days of treatment, read-out: abs. IC50
Outline: as §1

MAXFHER SK-BR-3 = details: Homo sapiens, 72 h, three days of treatment, read-out: abs. IC50
Outline: as §1

MAXFTN BT-549 = details: Homo sapiens, 72 h, three days of treatment, read-out: abs. IC50
Outline: as §1

MAXFTN MDA-MB-468 (ER−) = details: Homo sapiens, 72 h, three days of treatment, read-out: abs. IC50
Outline: as §1

MEXF A-375 = details: Homo sapiens, 72 h, three days of treatment, read-out: abs. IC50
Outline: as §1

MEXF A2058 = details: Homo sapiens, 72 h, three days of treatment, read-out: abs. IC50
Outline: as §1

MEXF M14 = details: 72 h, three days of treatment, read-out: abs. IC50
Outline: as §1

MEXF MDA-MB-435 = details: Homo sapiens, 72 h, three days of treatment, read-out: abs. IC50
Outline: as §1

MEXF WM-266-4 = details: Homo sapiens, 72 h, three days of treatment, read-out: abs. IC50
Outline: as §1

MMXF U-266 = details: Homo sapiens, 72 h, three days of treatment, read-out: abs. IC50
Outline: as §1

OVXF SK-OV-3 = details: Homo sapiens, 72 h, three days of treatment, read-out: abs. IC50
Outline: as §1

PAXF BxPC-3 = details: Homo sapiens, 72 h, three days of treatment, read-out: abs. IC50
Outline: as §1

PRXF 22Rv1 = details: Homo sapiens, 72 h, three days of treatment, read-out: abs. IC50
Outline: as §1

PRXF DU-145 = details: Homo sapiens, 72 h, three days of treatment, read-out: abs. IC50
Outline: as §1

PRXF LNCaP = details: Homo sapiens, 72 h, three days of treatment, read-out: abs. IC50
Outline: as §1

PRXF VCap = details: Homo sapiens, 72 h, three days of treatment, read-out: abs. IC50
Outline: as §1

UXF EFE-184 = details: Homo sapiens, 72 h, three days of treatment, read-out: abs. IC50
Outline: as §1

UXF MFE-319 = details: 72 h, three days of treatment, read-out: abs. IC50
Outline: as §1

CN(C)[C@H]1CCN(c2ccc(Nc3ncc4c(n3)N(C3CCCC3)C(=O)[C@]3(CCNC3=O)C4)nc2)C1 [Example D178, (S)-8-cyclopentyl-2-((5-((S)-3-(dimethylamino)pyrrolidin-1-yl)pyridin-2-yl)amino)-5,8-dihydro-7H-spiro[pyrido[2,3-d]pyrimidine-6,3′-pyrrolidine]-2′,7-dione]
pIC50 (CEXF HeLa): 4.43
pIC50 (CXF COLO 205): 5.21
pIC50 (CXF Caco-2): ≤ 4.00
pIC50 (CXF HCT-15): 4.53
pIC50 (CXF HT-29): 4.50
pIC50 (GXA MKN45): 4.32
pIC50 (LEXFAM MV4-11): ≥ 8.00
pIC50 (LEXFCL MEC-1): 4.43
pIC50 (LEXFCM K-562): 4.12
pIC50 (LIXAH SNU-398): 6.22
pIC50 (LIXFH Hep G2): 5.27
pIC50 (LXFA A549): 4.16
pIC50 (LXFA NCl-H1975): 4.78
pIC50 (LXFL NCl-H1299): 4.52
pIC50 (LXFL NCl-H460): 4.20
pIC50 (LYXFNH U-937): ≥ 8.00
pIC50 (MAXFHER SK-BR-3): 4.50
pIC50 (MAXFTN BT-549): 4.78
pIC50 (MAXFTN MDA-MB-468 (ER−)): 4.17
pIC50 (MEXF A-375): 6.11
pIC50 (MEXF A2058): 4.22
pIC50 (MEXF M14): 4.61
pIC50 (MEXF MDA-MB-435): 4.74
pIC50 (MEXF WM-266-4): 4.13
pIC50 (MMXF U-266): 4.21
pIC50 (OVXF SK-OV-3): 4.11
pIC50 (PAXF BxPC-3): 4.92
pIC50 (PRXF 22Rv1): 6.35
pIC50 (PRXF DU-145): 4.72
pIC50 (PRXF LNCaP): 4.68
pIC50 (PRXF VCap): 4.68
pIC50 (UXF EFE-184): 4.65
pIC50 (UXF MFE-319): 4.95
